Test results reported in PMC9243654 (Frontiers in Nutrition, 2022).
Read-outs that look alike come from different tables or passages of the source.

Tests used:
[1] = ref PubChem database, cited from earlier work
[2] = in vitro
Protocol: The PAMPA-BBB assay was conducted according to the methodology followed by Di et al., with some modifications as described below ([15]). First, the BBB solution was prepared by dissolving 8 mg of PBL and 4 mg of cholesterol in 600 μl of n-dodecane. The initial donor solution was prepared by mixing 1 ml of extract (10 mg ml^−1 in EtOH) with 1 ml of buffer (PBS, pH = 7.4, 10 mM). The filter membrane of the donor plate was carefully coated with 5 μl of BBB solution. The acceptor plate was filled with 350 μl of buffer, and the donor plate was carefully assembled over the acceptor plate like a “sandwich.” Finally, the donor plate was filled with 350 μl of donor solution, covered, and incubated for 4 h at 37°C in the dark. After incubation time, 300 μl of the solution was taken from both plates, transferred to separate vials, and dried in the SpeedVac system at 40°C and 13 mbar pressure. Dried acceptor and donor solution were dissolved in 50 μl of pure EtOH before subjecting to UHPLC-Q-TOF-MS analysis. Permeability across in vitro BBB of the bioactive compound was measured according to Equation (1) ([25]), with some modifications in concentration rates.
(1) Pe=-ln[1-CA(t)/Ce]/A^*(1/VD+1/VA)^*t
Cequilibrium was calculated according to the following equation ([2]):
(2) Cequilibrium=[CD(t)*VD+CA(t)*VA]/(VD+VA)

[3] = compounds identified in LPLE extract
[4] = compound within LPLE (Nothofagus pumilio, lenga PLE extract), classes based on Könczöl et al.
[5] = compounds of RSFE extract, octanol-water partition coefficient
[6] = compound within RSFE extract, 4 h, 37°C, PBS pH 7.4
[7] = PAMPA, pH 7.4, PAMPA-BBB log Pe, compound within LPLE (Nothofagus pumilio, lenga PLE extract), N.D = not detected in acceptor
[8] = compound within LPLE (Nothofagus pumilio, lenga PLE extract), N.D = not detected in acceptor
[9] = PAMPA, pH 7.4, PAMPA-BBB log Pe (cm s−1)
[10] = PAMPA, pH 7.4, PAMPA-BBB log Pe (cm s−1), compound within T33 extract, 4 h, 37°C, PBS pH 7.4

## C[C@]12C[C@@H](O)[C@H]3[C@@H](CC[C@]4(O)C[C@@H](O)CC[C@]34CO)[C@@]1(O)CC[C@@H]2c1ccc(=O)oc1 [11α,19-dihydroxytelocinobufagin]
[1]; compounds of KD extract
  Log P: 3.63
[2]; compound within KD extract
  Cross BBB potential: -

## OC[C@H]1O[C@@H](Oc2cc(O)cc(/C=C/c3ccc(O)cc3)c2)[C@H](O)[C@@H](O)[C@@H]1O [Piceid]
[1]; [3]
  Log P: 1.7
[1]; compounds of ASFE extract
  Log P: 1.7
[2]; [4]
  Cross BBB potential: -

## COc1c(O)cc2oc(-c3ccc(O)c(O)c3)cc(=O)c2c1O [Eupafolin]
[1]; compounds of KD extract
  Log P: 1.4
[2]; PAMPA, pH 7.4, PAMPA-BBB log Pe (cm s−1), compound within KD extract, 4 h, 37°C, PBS pH 7.4
  Papp at 4 h: 339 ×10⁻⁶ cm/s
[2]; compound within KD extract
  Cross BBB potential: +++ (log Pe > −4.5)

## Desdimethyl-octahydro-iso- cohumulone
[1]; [5]
  Log P: 3.8
[2]; compound within RSFE extract
  Cross BBB potential: +++ (log Pe > −4.5)
[2]; [6]
  PAMPA-BBB log Pe (cm s−1): −4.30 cm s−1

## O=c1c(O)c(-c2ccc(O)c(O)c2)oc2cc(O)cc(O)c12 [Quercetin, reference compound]
[1]; [3]
  Log P: 1.5
[1]; compounds of ASFE extract
  Log P: 1.5
[1]; compounds of KD extract
  Log P: 1.5
[2]; PAMPA, pH 7.4, LogPe, permeability of BBB to quercetin, present study
  Papp at 4 h: 0.0955 ×10⁻⁶ cm/s
[2]; [7]
  Papp at 4 h: 0.0245 ×10⁻⁶ cm/s

## O=Cc1ccc(O)c(O)c1 [Protocatechuic aldehyde]
[1]; [3]
  Log P: 1.1
[1]; compounds of ASFE extract
  Log P: 1.1
[2]; PAMPA, pH 7.4
  PAMPA-BBB log Pe (cm s−1): −5.75 cm s−1
[2]; [8]
  PAMPA-BBB log Pe: −5.13 cm s−1

## O=c1c(O[C@@H]2O[C@H](CO)[C@@H](O)[C@H](O)[C@H]2O)c(-c2ccc(O)c(O)c2)oc2cc(O)cc(O)c12 [Isoquercitrin]
[2]; PAMPA
  Cross BBB potential: -

## Oc1cc(O)c2c(c1)O[C@H](c1ccc(O)c(O)c1)[C@H](O)[C@H]2c1c(O)cc(O)c2c1O[C@H](c1ccc(O)c(O)c1)[C@H](O)C2 [Procyanidin B2]
[2]; PAMPA
  Cross BBB potential: -

## O=C(O[C@@H]1Cc2c(O)cc(O)cc2O[C@@H]1c1ccc(O)c(O)c1)c1cc(O)c(O)c(O)c1 [(-)-Epicatechin gallate]
[1]; [3]
  Log P: 1.5
[1]; compounds of ASFE extract
  Log P: 1.5
[2]; compound within ASFE extract
  Cross BBB potential: -
[2]; [4]
  Cross BBB potential: -

## Kalandaigremoside F
[1]; compounds of KD extract
  Log P: 7.2
[2]; compound within KD extract
  Cross BBB potential: -

## O=C(/C=C/c1ccc(O)c(O)c1)O[C@@H]1C[C@](O)(C(=O)O)C[C@@H](O)[C@H]1O [Caffeoylquinic acid (chlorogenic acid), Caffeoylquinic acid]
[2]; [9]
  Papp at 4 h: 10.2 ×10⁻⁶ cm/s

## O=C(/C=C/c1ccc(O)cc1)O[C@@H](C(=O)O)[C@@H](O)C(=O)O [Coutaric acid]
[1]; [3]
  Log P: 0.4
[1]; compounds of ASFE extract
  Log P: 0.4
[2]; compound within ASFE extract
  Cross BBB potential: -
[2]; [4]
  Cross BBB potential: -

## COc1ccc(-c2cc(=O)c3c(O)cc(OC)cc3o2)cc1 [4-Methoxytectochrysin]
[1]; [5]
  Log P: 3.3
[2]; PAMPA
  Cross BBB potential: +++
[2]; PAMPA, 4 h, pH 7.4
  PAMPA-BBB log Pe (cm s−1): −4.22 cm s−1

## C[C@H]1O[C@H](O[C@H]2CC[C@]3(C=O)[C@H]4CC[C@]5(C)[C@@H](c6ccc(=O)oc6)CC[C@]5(O)[C@@H]4CC[C@]3(O)C2)[C@H](O)[C@@H](O)[C@@H]1O [Kalanchoside A]
[1]; compounds of KD extract
  Log P: −0.1
[2]; compound within KD extract
  Cross BBB potential: -

## CC(C)c1cc2c(c(O)c1O)[C@@]1(C(=O)O)CCCC(C)(C)[C@@H]1CC2 [Carnosic acid]
[2]; PAMPA
  Cross BBB potential: ++ (key: -: not detected in acceptor; +: log Pe > −6.5; ++: log Pe > −5.5; +++: log Pe > −4.5)
[2]; [9]
  Papp: 13.5 ×10⁻⁶ cm/s

## Oc1ccc(/C=C/c2cc(O)cc3c2[C@@H](c2cc(O)cc(O)c2)[C@H](c2ccc(O)cc2)O3)cc1 [ε-Viniferin]
[1]; [3]
  Log P: 5.4
[1]; compounds of ASFE extract
  Log P: 5.4
[2]; compound within ASFE extract
  Cross BBB potential: -
[2]; [4]
  Cross BBB potential: -

## COc1cc(/C=C/C(=O)O)ccc1O [Ferulic acid]
[2]; PAMPA
  Cross BBB potential: ++ (key: -: not detected in acceptor; +: log Pe > −6.5; ++: log Pe > −5.5; +++: log Pe > −4.5)
[2]; PAMPA, pH 7.4
  PAMPA-BBB log Pe (cm s−1): −4.68 cm s−1
[2]; compound within ASFE extract
  Cross BBB potential: -

## C[C@@H]1O[C@@H](OC[C@H]2O[C@@H](Oc3c(-c4ccc(O)c(O)c4)oc4cc(O)cc(O)c4c3=O)[C@H](O)[C@@H](O)[C@@H]2O)[C@H](O)[C@H](O)[C@H]1O [Rutin]
[2]; PAMPA
  Cross BBB potential: -

## COc1cc(C=O)ccc1O [Vanillin]
[2]; [9]
  Papp at 4 h: 70.8 ×10⁻⁶ cm/s
[2]; [7]
  Papp at 4 h: 33.1 ×10⁻⁶ cm/s

## O=C(O)[C@]1(O)C[C@@H](O)[C@@H](O)[C@H](O)C1 [Quinic acid]
[1]; compounds of T33 extract
  Log P: −2.4
[2]; PAMPA
  Cross BBB potential: -
[2]; PAMPA, pH 7.4, PAMPA-BBB log Pe (cm s−1), compound within RSFE extract, 4 h, 37°C, PBS pH 7.4
  Papp at 4 h: 6.03 ×10⁻⁶ cm/s
[2]; [10]
  Papp at 4 h: 3.63 ×10⁻⁶ cm/s

## COc1ccc([C@@H]2CC(=O)c3c(O)cc(O[C@@H]4O[C@H](CO[C@@H]5O[C@@H](C)[C@H](O)[C@@H](O)[C@H]5O)[C@@H](O)[C@H](O)[C@H]4O)cc3O2)cc1O [Hesperidin]
[1]; [3]
  Log P: −1.1
[1]; compounds of ASFE extract
  Log P: −1.1
[2]; compound within ASFE extract
  Cross BBB potential: -
[2]; [4]
  Cross BBB potential: -

## C[C@H]1[C@H](C)CC[C@]2(C(=O)O)CC[C@]3(C)C(=CC[C@@H]4[C@@]5(C)C[C@@H](O)[C@H](O)C(C)(C)[C@@H]5CC[C@]43C)[C@H]12 [Corosolic acid]
[1]; [3]
  Log P: 6.4
[2]; PAMPA
  Cross BBB potential: ++
[2]; [9]
  Papp at 4 h: 6.03 ×10⁻⁶ cm/s
[2]; [7]
  Papp at 4 h: 8.51 ×10⁻⁶ cm/s

## COc1cc(/C=C/C=O)ccc1O [Coniferaldehyde]
[1]; [3]
  Log P: 1.5
[1]; compounds of ASFE extract
  Log P: 1.5
[2]; PAMPA, pH 7.4
  PAMPA-BBB log Pe (cm s−1): −4.24 cm s−1
[2]; [8]
  PAMPA-BBB log Pe: −4.65 cm s−1

## Notohamosine B
[1]; [5]
  Log P: 5.6
[2]; PAMPA
  Cross BBB potential: ++
[2]; PAMPA, 4 h, pH 7.4
  PAMPA-BBB log Pe (cm s−1): −4.62 cm s−1

## COc1cc2ccc(=O)oc2cc1O [Scopoletin]
[2]; [9]
  Papp at 4 h: 75.9 ×10⁻⁶ cm/s
[2]; [7]
  Papp at 4 h: 28.2 ×10⁻⁶ cm/s

## O=C(/C=C/c1ccc(O)c(O)c1)O[C@H](Cc1ccc(O)c(O)c1)C(=O)O [Rosmarinic acid]
[1]; [5]
  Log P: 2.4
[1]; compounds of T33 extract
  Log P: 2.4

## C[C@@H]1O[C@@H](Oc2c(-c3ccc(O)cc3)oc3cc(O)cc(O)c3c2=O)[C@H](O)[C@H](O)[C@H]1O [Afzelin]
[2]; PAMPA
  Cross BBB potential: -

## O=c1oc2c(O)c(O)cc3c(=O)oc4c(O)c(O)cc1c4c23 [Ellagic acid]
[2]; PAMPA
  Cross BBB potential: -

## CCOC(=O)/C=C/c1ccc(O)c(O)c1 [Ethyl caffeate]
[2]; [10]
  Papp at 4 h: 18.6 ×10⁻⁶ cm/s
[2]; compound within T33 extract
  Cross BBB potential: ++ (log Pe > −5.5)

## O=c1ccc2ccc(O)cc2o1 [Umbelliferone]
[2]; PAMPA, pH 7.4
  Papp at 4 h: 38 ×10⁻⁶ cm/s
[2]; compound within RSFE extract
  Cross BBB potential: +++ (log Pe > −4.5)

## COc1ccc(-c2cc(=O)c3c(O)cc(O)cc3o2)cc1O [Diosmetin]
[2]; PAMPA
  Cross BBB potential: ++ (key: -: not detected in acceptor; +: log Pe > −6.5; ++: log Pe > −5.5; +++: log Pe > −4.5)
[2]; [9]
  Papp: 31.6 ×10⁻⁶ cm/s

## O=C(O)c1cc(O)c(O)c(O)c1 [Gallic acid]
[2]; [7]
  Papp at 4 h: 69.2 ×10⁻⁶ cm/s

## O=C(O)/C=C/c1ccc(O)c(O)c1 [Caffeic acid]
[2]; PAMPA
  Cross BBB potential: -

## COc1cc(O)c2c(=O)cc(-c3ccc(O)cc3)oc2c1 [Genkwanin]
[2]; [9]
  Papp at 4 h: 9.55 ×10⁻⁶ cm/s

## O=c1c(O)c(-c2cc(O)c(O)c(O)c2)oc2cc(O)cc(O)c12 [Myricetin]
[2]; PAMPA
  Cross BBB potential: -

## C[C@H]1[C@H](C)CC[C@]2(C(=O)O)CC[C@]3(C)C(=CC[C@@H]4[C@@]5(C)C[C@@H](O)[C@H](O)[C@@](C)(CO)[C@@H]5CC[C@]43C)[C@H]12 [Asiatic acid]
[2]; PAMPA
  Cross BBB potential: +++
[2]; [9]
  Papp at 4 h: 64.6 ×10⁻⁶ cm/s

## O=C1C[C@@H](c2ccc(O)c(O)c2)Oc2cc(O)cc(O)c21 [Eriodictyol]
[1]; [5]
  Log P: 2.0

## O=c1cc(-c2ccc(O)c(O)c2)oc2cc(O)cc(O)c12 [Luteolin]
[2]; [9]
  Papp at 4 h: 38 ×10⁻⁶ cm/s

## COc1cc(C(=O)O)ccc1O[C@@H]1O[C@H](CO)[C@@H](O)[C@H](O)[C@H]1O [Vanillic acid-O-hexoside]
[2]; compound within RSFE extract
  Cross BBB potential: +++ (log Pe > −4.5)
[2]; [6]
  PAMPA-BBB log Pe (cm s−1): −4.19 cm s−1
